Laboratory results taken from patent publication US20250073255A1, “USE OF FA-TYPE LIPID COMPOUNDS IN PREPARATION OF NUCLEIC ACID DELIVERY REAGENT AND RELATED PRODUCT” (BEIJING BAISHIKANG PHARMACEUTICAL TECHNOLOGY (BSJPHARMA) …, priority 2021, published 2025).

System: C57BL/6 male mice
Assay: In vivo delivery study of lipid nucleic acid mixture (oral gavage, RT-qPCR of PGY-sRNA-26 in tissues)
Set-up: species or system mouse
Settings: for oral delivery of single-stranded sRNA nucleic acids into mouse blood / oral delivery of single-stranded sRNA nucleic acids into mouse brain tissue / oral delivery of single-stranded sRNA nucleic acids into mouse femur / oral delivery of single-stranded sRNA nucleic acids into mouse heart tissue / oral delivery of single-stranded sRNA nucleic acids into mouse intestinal tissue / oral delivery of single-stranded sRNA nucleic acids into mouse kidney tissue / oral delivery of single-stranded sRNA nucleic acids into mouse liver tissue / oral delivery of single-stranded sRNA nucleic acids into mouse lung tissue / oral delivery of single-stranded sRNA nucleic acids into mouse pancreatic tissue / oral delivery of single-stranded sRNA nucleic acids into mouse spleen tissue / oral delivery of single-stranded sRNA nucleic acids into mouse stomach tissue: 100 μg lipid:10 nmol PGY-sRNA-26, sampled after 12 hours; for oral delivery of single-stranded sRNA nucleic acids into mouse heart tissue: vs free uptake group; for oral delivery of single-stranded sRNA nucleic acids into mouse intestinal tissue: intestine; for oral delivery of single-stranded sRNA nucleic acids into mouse pancreatic tissue: pancreas; for overall delivery efficacy: delivering nucleic acids into each tissue and blood tested: 100 μg lipid:10 nmol PGY-sRNA-26, all tissues and blood tested
Summary of the method: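 Lipid (100 μg) and 10 nmol 3'-methylated single-stranded PGY-sRNA-26 were heated at 90 °C for 15 min, then given by oral gavage to mice fasted 12 h. Controls were saline and free sRNA. Blood and tissues were taken at 12 h, and levels were measured by stem-loop RT-qPCR relative to U6.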

Row | Compound | oral delivery of single-stranded sRNA nucleic acids into mouse blood | oral delivery of single-stranded sRNA nucleic acids into mouse brain tissue | oral delivery of single-stranded sRNA nucleic acids into mouse femur | oral delivery of single-stranded sRNA nucleic acids into mouse heart tissue | oral delivery of single-stranded sRNA nucleic acids into mouse intestinal tissue | oral delivery of single-stranded sRNA nucleic acids into mouse kidney tissue | oral delivery of single-stranded sRNA nucleic acids into mouse liver tissue | oral delivery of single-stranded sRNA nucleic acids into mouse lung tissue | oral delivery of single-stranded sRNA nucleic acids into mouse pancreatic tissue | oral delivery of single-stranded sRNA nucleic acids into mouse spleen tissue | oral delivery of single-stranded sRNA nucleic acids into mouse stomach tissue | overall delivery efficacy: delivering nucleic acids into each tissue and blood tested
1 | CC/C=C\C/C=C\C/C=C\CCCCCCCC(=O)OCCCCCCCCCCCC [Lipid 805, dodecyl (9Z,12Z,15Z)-octadeca-9,12,15-trienoate] | can effectively orally deliver | can effectively orally deliver | can effectively orally deliver | can effectively orally deliver | can effectively orally deliver | can effectively orally deliver | can effectively orally deliver | can effectively orally deliver | can effectively orally deliver | can effectively orally deliver | can effectively orally deliver | 
2 | O=C(O)CCCCCCCCCCCCCCC(=O)O [Lipid 529, hexadecanedioic acid] | can effectively orally deliver | can effectively orally deliver | can effectively orally deliver | can effectively orally deliver | can effectively orally deliver | can effectively orally deliver | can effectively orally deliver | can effectively orally deliver |  | can effectively orally deliver | can effectively orally deliver | best delivery efficacy
3 | CCCCC/C=C\C/C=C\C/C=C\C/C=C\CCCC(=O)NCCCO [Lipid 808, (5Z,8Z,11Z,14Z)-N-(3-hydroxypropyl)icosa-5,8,11,14-tetraenamide] | can effectively orally deliver | can effectively orally deliver | can effectively orally deliver | can effectively orally deliver | can effectively orally deliver | can effectively orally deliver | can effectively orally deliver | can effectively orally deliver | can effectively orally deliver | can effectively orally deliver | can effectively orally deliver | 
4 | CC/C=C\CC1C(=O)CCC1CC(=O)O (stereo not shown) [Lipid 527] | can effectively orally deliver | can effectively orally deliver | can effectively orally deliver | can effectively orally deliver | can effectively orally deliver | can effectively orally deliver | can effectively orally deliver | can effectively orally deliver |  | can effectively orally deliver | can effectively orally deliver | best delivery efficacy
5 | CCCCCC/C=C\CCCCCCCC(=O)OCCCCCCCCCCCCCCCCC [Lipid 818, heptadecyl (Z)-hexadec-9-enoate] | can effectively orally deliver | can effectively orally deliver | can effectively orally deliver | can effectively orally deliver | can effectively orally deliver | can effectively orally deliver | can effectively orally deliver | can effectively orally deliver | can effectively orally deliver | can effectively orally deliver | can effectively orally deliver | 
6 | CCCCCCCCCCCCCCCCCCCCCCC(=O)NCCO [Lipid 519, N-(2-hydroxyethyl)tricosanamide] |  |  |  | can effectively orally deliver |  | can effectively orally deliver |  | can effectively orally deliver |  |  | can effectively orally deliver | 
7 | CCCCCCC(=O)OC/C=C(\C)CC/C=C(\C)CCC=C(C)C [Lipid 809, [(2E,6E)-3,7,11-trimethyldodeca-2,6,10-trienyl]heptanoate] | can effectively orally deliver | can effectively orally deliver | can effectively orally deliver | can effectively orally deliver | can effectively orally deliver | can effectively orally deliver | can effectively orally deliver | can effectively orally deliver | can effectively orally deliver | can effectively orally deliver | can effectively orally deliver | 
